# Measured values taken from PubChem BioAssay (NCI).
#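 Following 48 hours of exposure in 96-well plates, responses at five concentrations were used to interpolate endpoints linearly. TGI marks complete inhibition of growth.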
# Experiments:
# Assay in all cases: DTP human tumour cell line panel, 48 h
# MDA-MB-435 = system: MDA-MB-435
# CCRF-CEM leukemia = system: CCRF-CEM leukemia
# MOLT-4 leukemia = system: MOLT-4 leukemia
# HCT-15 colon = system: HCT-15 colon
# SK-MEL-28 melanoma = system: SK-MEL-28 melanoma
# MALME-3M melanoma = system: MALME-3M melanoma
# MDA-MB-231 breast = system: MDA-MB-231 breast
# SW-620 colon = system: SW-620 colon
# OVCAR-4 ovarian = system: OVCAR-4 ovarian
# UO-31 renal = system: UO-31 renal
SMILES,TGI (MDA-MB-435),TGI (CCRF-CEM leukemia),TGI (MOLT-4 leukemia),TGI (HCT-15 colon),TGI (SK-MEL-28 melanoma),TGI (MALME-3M melanoma),TGI (MDA-MB-231 breast),TGI (SW-620 colon),TGI (OVCAR-4 ovarian),TGI (UO-31 renal)
COC(=O)c1ccc2n1C1CC3CC(CC2C3)C1,> 100 µM,> 100 µM,> 100 µM,> 100 µM,> 100 µM,> 100 µM,> 100 µM,> 100 µM,> 100 µM,> 100 µM
CC(=O)Oc1ccn2nc(C)c(Br)c2c1Br,35.2 µM,47.1 µM,34.9 µM,33.6 µM,45 µM,40.6 µM,54.3 µM,> 73.6 µM,30.6 µM,> 29.6 µM
COc1nn(Cc2ccccc2F)c2ccc([N+](=O)[O-])cc12,> 23.6 µM,> 100 µM,> 100 µM,> 100 µM,> 100 µM,> 100 µM,> 100 µM,> 100 µM,> 100 µM,> 100 µM
Cn1c(-c2csc(-c3ccc(Cl)cc3)n2)n[nH]c1=S,> 100 µM,> 100 µM,> 100 µM,> 100 µM,> 100 µM,69.6 µM,69.4 µM,> 100 µM,50.9 µM,44.9 µM
COC(=O)C1OC(O[C@H]2CC[C@]3(C)[C@H]4CC=C5[C@@H]6CC(C)(C)CC[C@]6(C(=O)OC)[C@H](O)C[C@@]5(C)[C@]4(C)CC[C@H]3C2(C)C)C(O)C(O)C1O (stereo not given in full),27.7 µM,21.4 µM,25.2 µM,22.2 µM,23.8 µM,25.4 µM,21.8 µM,24.9 µM,19.7 µM,26.9 µM
N#Cc1c(=O)c2cc([N+](=O)[O-])ccc2n2c1[nH]c1ccccc12,> 79.9 µM,> 100 µM,> 76.1 µM,> 61.6 µM,> 64.8 µM,35.4 µM,> 57.4 µM,> 100 µM,> 100 µM,> 57.4 µM
N#CC1C(=O)Nc2sc(C(=O)c3ccc(Br)cc3)c(N)c2C12CCCCC2 (stereo not given),58.9 µM,80.3 µM,> 100 µM,> 100 µM,47.7 µM,84.2 µM,67.7 µM,69.4 µM,> 100 µM,> 100 µM
COc1ccc(C(=O)N2CCN(c3ccc4c(c3)OCC(=O)N4)CC2)cc1,> 100 µM,> 100 µM,> 100 µM,> 100 µM,> 100 µM,> 100 µM,> 100 µM,> 100 µM,> 100 µM,> 100 µM
O=c1nc2n(cc1/C=C\Br)C1CC(O)C(CO2)O1 (stereo not given),> 100 µM,> 100 µM,> 100 µM,> 100 µM,> 100 µM,> 100 µM,> 100 µM,> 100 µM,> 100 µM,> 100 µM
N#CCCC(CC#N)N1CCN(CCO)CC1 (stereo not given),> 100 µM,> 100 µM,> 100 µM,> 100 µM,> 100 µM,> 100 µM,> 100 µM,> 100 µM,> 100 µM,> 100 µM
CC1=C(C(=O)OCCO[N+](=O)[O-])C(c2ccccc2C(F)(F)F)C(C(=O)OC(C)C)=C(C)N1 (stereo not given),53.5 µM,> 100 µM,> 100 µM,60.6 µM,33.5 µM,58.1 µM,23.5 µM,> 100 µM,93.4 µM,33.6 µM
CCC(=O)OCc1ccc2oc(=O)c(C(=O)Oc3cncc(Cl)c3)cc2c1,> 100 µM,24.8 µM,> 100 µM,> 100 µM,> 100 µM,> 100 µM,> 100 µM,> 100 µM,> 100 µM,> 100 µM
NC1CC2C3CCC2C1C3=O (stereo not given),> 100 µM,> 100 µM,> 100 µM,> 100 µM,> 100 µM,> 100 µM,> 100 µM,> 100 µM,> 100 µM,> 100 µM
C=C1C(=O)OC2/C=C(\C)C(O)CC(O)C(C)(O)CC(OC(=O)/C(C)=C/C)C12 (stereo not given),> 100 µM,> 82.8 µM,> 100 µM,> 100 µM,> 100 µM,> 100 µM,> 100 µM,> 100 µM,> 100 µM,> 100 µM
Cc1ccc(S(=O)(=O)N2CCSCCSCCN(S(=O)(=O)c3ccc(C)cc3)CCN(S(=O)(=O)c3ccc(C)cc3)CC2)cc1,> 100 µM,> 100 µM,> 100 µM,> 100 µM,> 100 µM,> 100 µM,> 100 µM,> 100 µM,> 100 µM,> 100 µM
C=CCN1C(=O)/C(=C/c2ccc(C)cc2)N=C1SC/C=C/C,> 100 µM,> 100 µM,37.8 µM,> 100 µM,> 100 µM,93.4 µM,> 100 µM,> 100 µM,> 100 µM,> 100 µM
c1ccc2c(c1)CCc1c-2n(CCN2CCCCC2)c2ccccc12,74.4 µM,> 100 µM,44.8 µM,22.9 µM,50.9 µM,40.3 µM,28 µM,50.1 µM,59.4 µM,23.7 µM
